Data taken from US20220265597A1, “ANTIVIRAL EFFECTS OF NARASIN IN SWINE FEED” (Elanco US Inc., priority 2014, published 2022).
Marks after values point to notes of the source that are not given here.

Legend:
PEDV [1] = assay: Enteric clinical observation scoring (diarrhea, depression, gauntness) of nursery pigs challenged with PEDV; type: in vivo, pig; parameters: Depression score, Severity: scale not given here; settings: for Depression score, Severity / Diarrhea score, Severity / Gauntness score, Severity: average of worst score of each pig over 14-d period; for Depression score, Incidence / Diarrhea score, Incidence / Gauntness score, Incidence: pigs affected/pigs; for Gauntness score, Mean of Day 0 to 14: score 0-2; for Depression score, Mean of Day 0 to 14: score 0-3; for Diarrhea score, Mean of Day 0 to 14: score 1-4
Method: (§1) The seventy-five piglets were randomly assigned to one of three treatment groups: control (no ionophore), narasin (30 mg/kg) and narasin (60 mg/kg). They acclimatized to their environment and were fed daily for seven days prior to exposure with PEDV on Day 0. Treatment continued for 14 days following challenge. Pigs from the three treatment groups were administered orally with 4×10^4 TCID50/mL of the PEDV isolate PEDV/USA/NC/2013/49469 (College of Veterinary Medicine, Iowa State University). The piglets were monitored daily for changes in clinical parameters, clinical score for diarrhea, depression and gauntness, rate of food consumption, and rate of body weight change and viral swabs were taken daily to determine viral shedding.
Incidence and severity of the score data (diarrhea, depression, and gauntness) were summarized by frequencies and mean scores on a daily basis.
Table 2 indicates the scoring system used to measure diarrhea, depression, and gauntness. Table 3 compares the mean scores for diarrhea, depression and gauntness in nursery pigs whose diet included 0, 30 or 60 mg/kg narasin.

PEDV [2] = assay: Viral shedding of PEDV in fecal swabs by real-time RT-PCR; type: in vivo, pig; settings: for Viral shedding: only pigs positive for shedding
Method: as §1
(§2) Viral shedding values was evaluated by RMANOVA and the PROC MIXED procedure of SAS (SAS, Cary, N.C.). Other variables for analysis included growth performance data (average daily gain, or ADG; average daily feed intake, or ADFI; and feed efficiency (unit of weight gain per unit of feed consumed), or G:F), incidence and severity of diarrhea, depression, and gauntness scores, and intestinal histology score and immunohistochemistry. The analysis of the growth performance outcomes were conducted using a generalized linear mixed model and the PROC MIXED procedure of SAS.
The effects of narasin levels (0, 30, 60 mg/kg) on within-day viral shedding of nursery pigs (Table 4) and percentage of nursery pigs shedding PEDV (Table 5) are compared. Fecal swabs were collected from all pigs on test daily from Day 0 to 14 of study. Each sample was labeled with pig identification, pen number, and sample day. All samples were frozen at the time of collection and stored until required for analysis. Only fecal swab samples collected from days 0, 1, 2, 3, 4, 5, 6, 7, 8, 9, and 14 were sent for analysis. Fecal swab samples were sent to the Iowa State Veterinary Diagnostic Laboratory (ISVDL) and were analyzed using real-time RT-PCR to determine viral shedding of PEDV.

PEDV [3] = assay: Intestinal histology score and immunohistochemistry of PEDV-challenged nursery pigs; type: in vivo, pig; settings: not significant (P>0.05)
Method: as §2
The effects of narasin inclusion level on the intestinal histology score and immunohistochemistry were analyzed. As narasin level increased from 0, 30, 60 mg/kg), histology scores decreased from 2 to 0 while the immunohistochemistry score decreased only at the 60 mg/kg level (from 3 to 2) although differences were not significant (P>0.05).

[4] = system: flavivirus responsible for dengue fever; settings: added to cultured human cells infected with the virus (Low, et al. 2011); cited from earlier work
nursery pigs = settings: about 83 mg/kg feed, at least in the presence of tiamulin; cited from earlier work

CC[C@@H](C(=O)O)[C@@H]1O[C@@H]([C@@H](C)[C@H](O)[C@H](C)C(=O)[C@H](CC)[C@H]2O[C@]3(C=C[C@@H](O)[C@]4(CC[C@@](C)([C@H]5CC[C@](O)(CC)[C@H](C)O5)O4)O3)[C@H](C)C[C@@H]2C)[C@@H](C)C[C@@H]1C [narasin]
effect of narasin level on mean or severity of gauntness scores (PEDV [1]; 0, 30, 60 mg/kg feed, 14-d period): little effect | incidence of depression, animals (PEDV [1]; 30 mg/kg feed, 14-d period): 4 animals | Depression score, Severity (PEDV [1]; 30 mg/kg feed): 0.16 | Diarrhea score, Severity (PEDV [1]; 30 mg/kg feed): 2.72 | Gauntness score, Severity (PEDV [1]; 30 mg/kg feed): 0.68 | Depression score, Incidence (PEDV [1]; 30 mg/kg feed): 4/25 | Diarrhea score, Incidence (PEDV [1]; 30 mg/kg feed): 19/25 | Gauntness score, Incidence (PEDV [1]; 30 mg/kg feed): 14/25 | Gauntness score, Mean of Day 0 to 14 (PEDV [1]; 30 mg/kg feed): 0.14 | Depression score, Mean of Day 0 to 14 (PEDV [1]; 30 mg/kg feed): 0.03 | Diarrhea score, Mean of Day 0 to 14 (PEDV [1]; 30 mg/kg feed): 1.45 | incidence of depression, animals (PEDV [1]; 60 mg/kg feed, 14-d period): 3 animals | Depression score, Severity (PEDV [1]; 60 mg/kg feed): 0.12 | Diarrhea score, Severity (PEDV [1]; 60 mg/kg feed): 2.48 | Gauntness score, Severity (PEDV [1]; 60 mg/kg feed): 0.52 | Depression score, Incidence (PEDV [1]; 60 mg/kg feed): 3/25 | Diarrhea score, Incidence (PEDV [1]; 60 mg/kg feed): 19/25 | Gauntness score, Incidence (PEDV [1]; 60 mg/kg feed): 11/25 | Gauntness score, Mean of Day 0 to 14 (PEDV [1]; 60 mg/kg feed): 0.14 | Depression score, Mean of Day 0 to 14 (PEDV [1]; 60 mg/kg feed): 0.02 | Diarrhea score, Mean of Day 0 to 14 (PEDV [1]; 60 mg/kg feed): 1.37 | duration of shedding (PEDV [2]; 0, 30, 60 mg/kg feed): generally decreased as narasin level increased | effect of narasin level on the percentage of pigs shedding PEDV (PEDV [2]; 0, 30, 60 mg/kg feed, P>0.10): no effect | viral shedding compared to the control (PEDV [2]; 30 mg/kg feed): lower (P<0.10) viral shedding on Day 2 and Day 3 | Viral shedding (PEDV [2]; 30 mg/kg feed, Day 0): 0 cells/mL | Viral shedding (PEDV [2]; 30 mg/kg feed, Day 1): 1 cells/mL | Viral shedding (PEDV [2]; 30 mg/kg feed, Day 2): 1,005* cells/mL | Viral shedding (PEDV [2]; 30 mg/kg feed, Day 3): 152,889* cells/mL | Viral shedding (PEDV [2]; 30 mg/kg feed, Day 4): 7,543,717 cells/mL | Viral shedding (PEDV [2]; 30 mg/kg feed, Day 5): 108,303,640 cells/mL | Viral shedding (PEDV [2]; 30 mg/kg feed, Day 6): 879,972,048 cells/mL | Viral shedding (PEDV [2]; 30 mg/kg feed, Day 7): 1,422,120,182 cells/mL | Viral shedding (PEDV [2]; 30 mg/kg feed, Day 8): 268,967,479 cells/mL | Viral shedding (PEDV [2]; 30 mg/kg feed, Day 9): 63,817,042 cells/mL | Viral shedding (PEDV [2]; 30 mg/kg feed, Day 14): 2,256 cells/mL | viral shedding compared to the control (PEDV [2]; 60 mg/kg feed): lower (P<0.10) viral shedding on Day 2, 3, 4, 5, and 6 | Viral shedding (PEDV [2]; 60 mg/kg feed, Day 0): 0 cells/mL | Viral shedding (PEDV [2]; 60 mg/kg feed, Day 1): 0 cells/mL | Viral shedding (PEDV [2]; 60 mg/kg feed, Day 2): 1* cells/mL | Viral shedding (PEDV [2]; 60 mg/kg feed, Day 3): 4,085* cells/mL | Viral shedding (PEDV [2]; 60 mg/kg feed, Day 4): 18,980* cells/mL | Viral shedding (PEDV [2]; 60 mg/kg feed, Day 5): 593,842* cells/mL | Viral shedding (PEDV [2]; 60 mg/kg feed, Day 6): 5,551,647* cells/mL | Viral shedding (PEDV [2]; 60 mg/kg feed, Day 7): 171,586,154 cells/mL | Viral shedding (PEDV [2]; 60 mg/kg feed, Day 8): 58,813,444 cells/mL | Viral shedding (PEDV [2]; 60 mg/kg feed, Day 9): 16,189,481 cells/mL | Viral shedding (PEDV [2]; 60 mg/kg feed, Day 14): 9,262 cells/mL | immunohistochemistry score (PEDV [3]; 60 mg/kg feed, decreased from 3): 2 | intestinal histology score (PEDV [3]; narasin level increased 0, 30, 60 mg/kg: decreased from 2 to 0): 0 | replication of dengue flavivirus [4]: block replication | toxicity to nursery pigs (nursery pigs): toxic
